# Assay results published in EP4653003A1, “PHARMACEUTICAL COMPOSITION HAVING CERIUM COMPOUND CONTAINING TRIVALENT CERIUM AS ACTIVE INGREDIENT” (Applause Pharma Co., Ltd., priority 2023, dated 2024).
# Assays:
# [1] = tested on: adenine nephropathy model rats; format: in vivo, Slc:Wistar rat (male)
# From the text: • · Rat: Slc:Wistar rat (male) delivered at 12 weeks of age (Japan SLC, Inc.) • · Powder feed: AIN-93G powder feed (Funabashi Farm Co., Ltd.) • · Feed for laboratory animal: Labo MR Stock (Nosan Corporation) • · Adenine: (Tokyo Chemical Industry Co., Ltd.) • · Cerium oxide dispersion: Cerium oxide dispersion prepared in [Preparation of Cerium Oxide Dispersion]
# • (i) Weighed was 250 g of a powder feed, which was then kneaded with a kitchen machine. • (ii) After kneaded with a kitchen machine for 3 minutes, the feed adhered on the wall surface was scraped off, and then kneaded again for 3 minutes. Approximately 100 mL of hot water was then added evenly. • (iii) The feed was once put together by hands, and further kneaded with the kitchen machine until it became homogeneous. • (iv) The thus kneaded feed was shaped into a rod through a sausage machine. • (v) The thus shaped feed was cut into a cylindrical shape approximately 2.5 cm in diameter and 1.5 cm in thickness. • (vi) The thus shaped cylindrical feed was dried at 38°C in an incubator for two days. • (vii) The feed was weighed to estimate a proportion of residual water content, and dried until the proportion drops to 10% or below. • (viii) The prepared feed was put in a zipper bag, and stored in a refrigerator.
# A special feed was prepared by modifying step (ii) for the normal group feed, as described below. (ii) (Ade): While keeping the content under kneading, 0.625 g of adenine was added in small portions, the content was kneaded with a kitchen machine for 3 minutes, the feed adhered on the wall surface was scraped off, and the content was kneaded again for 3 minutes. Approximately 100 mL of hot water was then added evenly.
# A special feed was prepared by modifying steps (i) and (ii) for (2) Adenine Group Feed, as described below. • (i) (Ade + Dispersion (A)): Weighed was 246.1 g of the powder feed, which was then kneaded with a kitchen machine. • (ii) (Ade + Dispersion (A)): While keeping the content under kneading, 0.625 g of adenine was added in small portions, the content was kneaded with the kitchen machine for 3 minutes, the feed adhered on the wall surface was scraped off, and the content was kneaded again for 3 minutes. Next, while keeping the content under kneading, 32.7 g of cerium oxide dispersion was added in small portions, the content was kneaded with the kitchen machine for 3 minutes, the feed adhered on the wall surface was scraped off, and the content was kneaded again for 3 minutes. Approximately 70 mL of hot water was then added evenly. […]
# [2] = tested on: adenine nephropathy model rats; test: Uremic toxin lowering action by cerium chloride: indoxyl sulfate in whole blood by HPLC; format: in vivo; settings: blood collected by dissection; feed of adenine combined with cerium chloride
# Procedure: A solvent for precipitation (5.56 µmol/L 2-naphthalenesulfonic acid solution in acetonitrile) and a blood sample (whole blood) were mixed in a 1.5 mL polypropylene tube, the mixture was allowed to stand still at room temperature, and then centrifuged to cause solid-liquid separation, thereby obtaining a supernatant. A 10 mmol/L aqueous ammonium acetate solution was added to the thus obtained supernatant, and the mixture was centrifuged to obtain a supernatant. The operation above diluted the blood sample 50 times, with the final concentration of the thus-added 2-naphthalenesulfonic acid adjusted to 1 µmol/L.
# Fig. 19 illustrates a diagram, with the indoxyl sulfate concentration in the blood sample collected by dissection plotted on the ordinate, and with the total mole amount of cerium contained in 100 g of feed plotted on the abscissa.
# [3] = blood collected by dissection on Day 28, substance mixed in adenine feed, trend against content in 100 g feed
substance,measurement,setting,value
cerium(III) chloride heptahydrate [cerium chloride],blood urea nitrogen (BUN),[1]; [3],decline as the cerium chloride content in the feed increased
same,serum creatinine (CRE),[1]; [3],decline as the cerium chloride content in the feed increased
same,serum phosphorus (IP),[1]; [3],decline as the cerium chloride content in the feed increased
same,alanine aminotransferase (ALT),"[1]; rat, in vivo",equivalent to that in the normal group
same,indoxyl sulfate concentration in whole blood,[2],declining tendency
